{"source": "paper PMC9364801", "about": "“APOBEC3 selects V179I in HIV-1 reverse transcriptase to provide selective advantage for non-nucleoside reverse transcriptase inhibitor-resistant mutants” (Frontiers in virology, 2022)", "conditions_in_all_cases": "TZM-bl cells, MOI 0.02, 48 h; virus infectivity read-out; NNRTI pocket", "key": {"[1]": {"target": "T1, HIV-1 reverse transcriptase (RT), HIV-1NL4-3 (Human immunodeficiency virus type 1 (NEW YORK-5 ISOLATE), UniProt P12497)", "assay": "single-cycle pseudovirus infection, luciferase", "assay_type": "cell-based", "design": "gene gag-pol; mature RT p66/p51 heterodimer cut from Gag-Pol polyprotein; […]; tested in TZM-bl cells"}, "[2]": {"target": "T1, HIV-1 reverse transcriptase (RT), HIV-1NL4-3", "assay": "single-cycle pseudovirus infection, luciferase", "assay_type": "cell-based", "design": "gene gag-pol; mature RT p66/p51 heterodimer cut from Gag-Pol polyprotein; […]; tested in TZM-bl cells", "remark": "listed apart in the source"}, "[3]": {"target": "T1, HIV-1 reverse transcriptase (RT), HIV-1NL4-3", "design": "gene gag-pol"}, "[4]": {"target": "T1, HIV-1 reverse transcriptase (RT), HIV-1NL4-3", "assay": "single-cycle pseudovirus infection, luciferase", "assay_type": "cell-based", "design": "gene gag-pol; mature RT p66/p51 heterodimer cut from Gag-Pol polyprotein; […]; tested in TZM-bl cells", "remark": "listed apart in the source"}}}
{"smiles": "Cc1cc(C)c(Nc2ccnc(Nc3ccc(C#N)cc3)n2)c(C)c1", "note": "[DAP, dapivirine]", "values": [{"measurement": "DAP EC50", "setting": "[1]", "value": "0.26 ± 0.13", "unit": "nM"}]}
{"smiles": "Cn1c(Cn2ccc(C(F)(F)F)c(Oc3cc(Cl)cc(C#N)c3)c2=O)n[nH]c1=O", "note": "[DOR, doravirine]", "values": [{"measurement": "DOR EC50", "setting": "[2]", "value": "1.4 ± 0.28", "unit": "nM"}]}
{"smiles": "O=C1Nc2ccc(Cl)cc2[C@@](C#CC2CC2)(C(F)(F)F)O1", "note": "[EFV, efavirenz]", "values": [{"measurement": "EFV EC50", "setting": "[3]", "value": "0.65 ± 0.30", "unit": "nM"}]}
{"smiles": "Cc1cc(C#N)cc(C)c1Oc1nc(Nc2ccc(C#N)cc2)nc(N)c1Br", "note": "[ETR, etravirine]", "values": [{"measurement": "ETR EC50", "setting": "[4]", "value": "0.83 ± 0.23", "unit": "nM"}]}
